{"source": "patent US9611276B2", "about": "“Imidazo bicyclic iminium compounds as antitumor agents” (THE BOARD OF TRUSTEES OF THE LELAND STANFORD JUNIOR …, priority 2012, dated 2017)", "key": {"Wnt pathway activity": {"tested_on": "Wnt pathway activity", "test": "Wnt-LIGHT cell assay with Wnt3a-conditioned medium", "format": "cell-based", "description": "Wnt-LIGHT cells [see Hyman et al. Proc Natl Acad Sci USA. 2009; 106(33):14132-7], a L-cell-based cell line containing a stably integrated TCF/LCF-dependent firefly luciferase reporter (SuperTopFlash), constitutive Renilla luciferase reporter (pRLSV40, Promega), and geneticin resistance vector (pcDNA3, Invitrogen), were cultured in DMEM (Invitrogen, 11965) containing 10% (v/v) fetal bovine serum (Invitrogen, No. 26140), 400 μg/mL G418 (Invitrogen, 11811) and 1× PenStrep (Gibco, 15140).\n(§1) All test compounds were dissolved in DMSO at 50 mM, serially diluted by 1:3, 1:4 or 1:5 in a 96-well translucent microplate (Greiner bio-one, 650201) and stored at −20° C. These serial dilutions were added to assay media freshly with final DMSO concentration of 0.2% (v/v).\nThe Wnt-LIGHT cell assay provides a measure of Wnt pathway activity. Wnt3a-conditioned medium was prepared by culturing Wnt3a-expressing L cells obtained from ATCC in DMEM (Invitrogen, 11965) containing 10% (v/v) fetal bovine serum (Invitrogen, No. 26140) and 1× PenStrep (Gibco, 15140). […] The cells were lysed with passive lysis buffer (50 μL/well), and 10 μL of the obtained lysate were analyzed for firefly and Renilla luciferase activities using Dual-Luciferase Reporter Assay System (Promega, E1960) (50 μL/well of each reagent) on a microplate luminometer (Veritas). Biological triplicates were analyzed for each test compounds."}, "Hh pathway activity [1]": {"tested_on": "Hh pathway activity", "test": "Shh-LIGHT2 cell assay with ShhN-conditioned medium", "format": "cell-based", "description": "Shh-LIGHT2 cells [see Taipale et al. Nature. 2000; 406(6799):1005-9], an NIH-3T3-based cell line containing a stably integrated Gli-responsive firefly luciferase reporter (8XGliBS-FL) and constitutive Renilla luciferase reporter (pRLTK, Promega), were cultured in DMEM (Invitrogen, 11965) containing 10% (v/v) calf serum [the American Type Culture Collection (ATCC), 30-2030], 150 μg/mL zeocin (Invitrogen, R250-01), 400 μg/mL G418 (Invitrogen, 11811), 1 mM sodium pyruvate (Invitrogen, 11360) and 1× PenStrep.\nas §1\nThe Shh-LIGHT2 cell assay provides a measure of Hh pathway activity. ShhN-conditioned medium was prepared by culturing a Shh-N-producing HEK 293 cell line [see Chen et al. Proc Natl Acad Sci USA. […] The cells were lysed with passive lysis buffer (50 μL/well), and 10 μL of the obtained lysate were analyzed for firefly and Renilla luciferase activities using Dual-Luciferase Reporter Assay System (Promega, E1960) (50 μL/well of each reagent) on a microplate luminometer (Veritas). Biological triplicates were analyzed for each test compounds."}, "Sufu-KO-LIGHT cells": {"tested_on": "Sufu-KO-LIGHT cells", "test": "Sufu-KO-LIGHT cell assay, cytotoxicity (CellTiter 96 AQueous One)", "format": "cell-based, mouse", "description": "(§2) Sufu-KO-LIGHT cells were derived from Sufu knockout mouse embryonic fibroblasts according to the method of Chen et al. [Genes Dev. 2009; 23(16):1910-28.] The cells were co-transfected with the zeocin resistance vector (pVgRXR, Invitrogen) and a firefly luciferase reporter driven by eight Gli binding sites and a γ-crystallin basal promoter (8XGliBS-FL) [see Sasaki et al. Development. 1997; 124(7):1313-22.2]. […] Sufu-KO-LIGHT cells were cultured in DMEM (Invitrogen, 11965) containing 10% (v/v) fetal bovine serum (Invitrogen, No. 26140), 150 μg/mL zeocin (Invitrogen, R250-01), 1 mM sodium pyruvate (Invitrogen, 11360) and 1× PenStrep (Gibco, 15140).\nas §1\nThe Sufu-KO-LIGHT cell assay provides a measure of Hh pathway activity and cytotoxicity. […] Bright Glo (Promega, E2620) reagent (50 μL/well) was added to the cells, and luciferase activities were determined on a microplate luminometer (Veritas). […] Cell viability was determined by measuring absorption at 490 nm after 1 hr of incubation on a microplate spectrophotometer (Benchmark Plus, Bio-Rad). Biological triplicates were analyzed for each test compounds."}, "Hh pathway activity [2]": {"tested_on": "Hh pathway activity", "test": "Sufu-KO-LIGHT cell assay, Gli-dependent firefly luciferase reporter", "format": "cell-based, mouse", "details": "for IC50: Mus musculus", "description": "as §2, §1\nThe Sufu-KO-LIGHT cell assay provides a measure of Hh pathway activity and cytotoxicity. Sufu-KO-LIGHT cells were seeded into a 96-well plate (35,000 cells/well), cultured to confluency for 24 hrs and then incubated with test compounds in DMEM without phenol red (Invitrogen, 26140) containing 0.5% (v/v) fetal bovine serum (Invitrogen, No. 26140), 150 μg/mL zeocin (Invitrogen, R250-01), 1 mM sodium pyruvate (Invitrogen, 11360), 1× PenStrep (Gibco, 15140) for 16 hrs. Bright Glo (Promega, E2620) reagent (50 μL/well) was added to the cells, and luciferase activities were determined on a microplate luminometer (Veritas). To assess cytotoxicity, after 15 hrs of incubation with test compounds, CellTiter 96 AQueous One Solution Cell Proliferation Assay (Promega, G3580) reagent (20 μL/well) was added. Cell viability was determined by measuring absorption at 490 nm after 1 hr of incubation on a microplate spectrophotometer (Benchmark Plus, Bio-Rad). Biological triplicates were analyzed for each test compounds."}}}
{"smiles": "CCOc1ccc(-[n+]2cc(-c3ccc(Br)cc3)n3c2CCCCC3)cc1", "note": "[Compound A-1]", "values": [{"measurement": "Inhibition of Wnt signaling", "setting": "Wnt pathway activity", "value": "did not inhibit Wnt signaling"}, {"measurement": "IC50, firefly luciferase", "setting": "Wnt pathway activity; Wnt-LIGHT w/ Wnt3a", "value": "No inhibition"}, {"measurement": "Inhibition of Hh pathway activity", "setting": "Hh pathway activity [1]; Shh-LIGHT2 cells stimulated with ShhN", "value": "inhibits Hh pathway activity"}, {"measurement": "IC50", "setting": "Hh pathway activity [1]; Shh-LIGHT2 w/ ShhN, read-out: IC50, firefly luciferase", "value": 6.6, "unit": "µM"}, {"measurement": "General cytotoxicity", "setting": "Sufu-KO-LIGHT cells", "value": "not generally cytotoxic"}, {"measurement": "IC50, cytotoxicity", "setting": "Sufu-KO-LIGHT cells; Sufu-KO-LIGHT cells", "value": "No toxicity"}, {"measurement": "IC50", "setting": "Hh pathway activity [2]", "value": "1.42 ± 0.96", "unit": "µM"}, {"measurement": "IC50", "setting": "Hh pathway activity [2]; read-out: IC50, firefly luciferase", "value": "1.42 ± 0.96", "unit": "µM"}, {"measurement": "Inhibition of Hh pathway activity", "setting": "Hh pathway activity [2]; Sufu-KO-LIGHT cells", "value": "inhibits Hh pathway activity"}]}
